Assay results: patent US8207167B2, “Aryl-phenyl-sulfonamide-phenylene compounds and their use” (PIMCO 2664 Limited, priority 2008, dated 2012)
In brackets after ≈: the same amount, converted by molar mass.

Experiments:
[1] = Thermodynamic aqueous solubility in fasted state simulated intestinal fluid (FaSSIF); type: physicochemical; conditions: fasted state simulated intestinal fluid (FaSSIF), pH 6.5, thermodynamic from solid, 25° C., 24 hours equilibration, HPLC
Method: (§1) Initial screening of candidate compounds was performed using in vitro assays to determine potency, metabolic stability and solubility in biologically relevant fluids. Potency was assessed using a viability assay based on the survival of the J774 macrophage cell line. Macrophages are closely related to osteoclasts and have been used previously as a model system for osteoclast survival (see, e.g., Luckman et al., 1998). Like osteoclasts, J774 macrophages are dependent on continued NFκB activation for survival, thereby providing a valuable screen for compounds with anti-inflammatory activity. Metabolic stability was measured by determining the rate of disappearance of compound in the presence of human liver microsomal preparations, as quantified by LC-MS/MS. Solubility was measured by equilibration of the compound in fasted state simulated intestinal fluid (FaSSIF) and quantified by HPLC.
Thermodynamic aqueous solubility was measured by equilibration of a number of APSAP compounds, in the solid state, with fasted state simulated intestinal fluid (FaSSIF) and quantified by HPLC. Measurement of solubility in FaSSIF provides a valuable model for the prediction of drug dissolution following oral administration.
Preparation of blank FaSSIF: NaOH pellets (174 mg), NaH2PO4.2H2O (2.235 g), and NaCl (3.093 g) were dissolved in 500 mL of water. The pH was adjusted to 6.5 using 1 M NaOH solution.
Preparation of FaSSIF: Sodium taurocholate (165 mg) was dissolved in 25 mL blank FaSSIF. 0.6 mL of a solution containing 100 mg/mL lecithin in methylene chloride was added. The methylene chloride was eliminated under vacuum at about 40° C. The vacuum was drawn for 15 minutes at 250 mbar, followed by 15 minutes at 100 mbar. […] After cooling to room temperature, the solution was then adjusted to 100 mL with blank FaSSIF.
The suspension was equilibrated at 25° C. for 24 hours, and then the pH was measured. The suspension was then filtered through a glass fibre C filter into a 96-well plate. The filtrate was then diluted by a factor of 100. Quantification was made by HPLC with reference to a standard solution of compound at approximately 0.1 mg/mL in DMSO. Different volumes of the standard, diluted and undiluted sample solutions were injected. The solubility was calculated using the peak areas determined by integration of the peak found at the same retention time as the principal peak in the standard injection. Analysis was performed on an Agilent HP1100 series system equipped with a diode array detector and using ChemStation software vB.02.01-SR1.

[2] = Human liver microsomal stability assay; type: in vitro ADME; conditions: pooled human liver microsomes 0.5 mg/mL, test compound 3 μM, 45 minute incubation, NADPH
Method: as §1
Metabolic stability of APSAP derivatives was measured by determination of the rate of compound disappearance when incubated in the presence of human liver microsomes. Liver microsomes are prepared from the endoplasmic reticulum of hepatocytes and are the primary source of the most important enzymes (cytochrome P450) involved in drug metabolism. Study of drug stability in the presence of liver microsomes is accepted as a valuable model permitting rapid prediction of in vivo drug stability.
Human liver microsomes were obtained from a commercial source. Test compounds (3 μM) were incubated with pooled liver microsomes (male and female). Samples were incubated for a 45 minute period and removed at 5 time points and test compounds were analysed by LC-MS/MS.
The final incubation volume was 25 μL. A control incubation was included for each compound tested, where 0.1 M phosphate buffer pH 7.4 was added instead of NADPH. The control compounds testosterone and 7-hydroxycoumarin were included in each experiment and all incubations were performed singularly for each compound.
Each compound was incubated for 0, 5, 15, 30, and 45 minutes. The control (minus NADPH) was incubated for 45 minutes only. The reactions were stopped by the addition of 50 μL methanol containing internal standard at the appropriate time points. The incubation plates were centrifuged at 2500 rpm for 20 minutes at 4° C. to precipitate the protein.
Following protein precipitation, the sample supernatants were combined in cassettes of up to 4 compounds and analysed using standard LC-MS/MS conditions.
From a plot of the natural logarithm of the peak area ratio (i.e., the ratio of compound peak area:internal standard peak area) against time, the gradient of the line was determined. Subsequently, half-life and intrinsic clearance were calculated using the equations below: Eliminated rate constant(k)=(−gradient). […] Intrinsic Clearance(CLint)([…])=(V×0.693)/t1/2. wherein V=Incubation volume(μL/mg microsomal protein). Pharmacokinetics Studies

solubility at 24 h [1]: 520 µg/mL (≈ 1240 µM)
T1/2 [2]: Stable
Compound: CNC(CO)c1cccc(NS(=O)(=O)c2ccc(-c3ccc(F)cc3F)cc2)c1 (centres unmarked) [ABD789, 2′,4′-Difluoro-N-(3-(2-hydroxy-1-(methylamino)ethyl)phenyl)biphenyl-4-sulfonamide]
